The MIC is the lowest concentration found to suppress growth. Low readings indicate greater potency, high ones weaker potency.

Structures are written as SMILES. Converted amounts (≈) assume the structure as drawn.

The record followed here is ChEMBL document CHEMBL1240467, “Synthesis and antibacterial activities of 6-O-methylerythromycin A 9-O-(3-aryl-2-propenyl) oxime ketolide, 2,3-enol ether, and alkylide analogues” (2010).

Common to all, as to format: functional
The subject of experiment [1] is Streptococcus pneumoniae. As to the kind of experiment: Antibacterial activity against erythromycin-susceptible Streptococcus pneumoniae ATCC 49619 by broth microdilution method. A general note: Broth dilution looks for growth in wells or tubes with falling amounts of substance.
Experiment [2] deals with Streptococcus pneumoniae. As to the kind of experiment: Antibacterial activity against erythromycin-resistant Streptococcus pneumoniae PU-11 expressing erm and mef gene by broth microdilution method.
In experiment [3] the test system is Staphylococcus aureus. As to the kind of experiment: Antibacterial activity against erythromycin-susceptible Staphylococcus aureus ATCC 29213 by broth microdilution method.
For experiment [4], the system named is Staphylococcus aureus. Kind of experiment: Antibacterial activity against erythromycin-resistant Staphylococcus aureus PU-19 expressing erm(A) gene by broth microdilution method.
For experiment [5], the system named is Staphylococcus aureus. Kind of experiment: Antibacterial activity against erythromycin-resistant Staphylococcus aureus PU-32 expressing erm(A) gene by broth microdilution method.
Experiment [6] deals with Streptococcus pneumoniae. Kind of experiment: Antibacterial activity against erythromycin-resistant Streptococcus pneumoniae PU-09 expressing mef gene by broth microdilution method.
Experiment [7] relates to Streptococcus pneumoniae. Kind of experiment: Antibacterial activity against erythromycin-resistant Streptococcus pneumoniae PU-27 expressing erm gene by broth microdilution method.

Regarding `CC[C@H]1OC(=O)[C@H](C)C(=O)[C@H](C)[C@@H](O[C@H]2O[C@H](C)C[C@H](N(C)C)[C@H]2O)[C@](C)(OC)C[C@@H](C)/C(=N\OC/C=C/c2cccnc2)[C@H](C)[C@@H]2OC(=O)O[C@]12C`, the minimal inhibitory concentration (MIC) is 0.032 µg/mL (≈ 0.0429 µM) in experiment [1]; 128 µg/mL (≈ 172 µM) in experiment [2]; 0.125 µg/mL (≈ 0.168 µM) in experiment [3]; 256 µg/mL (≈ 343 µM) in experiment [4]; 0.125 µg/mL (≈ 0.168 µM) in experiment [5].

As to `CC[C@H]1OC(=O)[C@H](C)C(=O)[C@H](C)[C@@H](O[C@H]2O[C@H](C)C[C@H](N(C)C)[C@H]2O)[C@](C)(OC)C[C@@H](C)/C(=N\OC/C=C/c2cnc3ccccc3c2)[C@H](C)[C@@H]2OC(=O)O[C@]12C`, the minimal inhibitory concentration (MIC) in experiment [1] was no more than 0.016 µg/mL; in experiment [2], 32 µg/mL (≈ 40.2 µM); in experiment [3], 0.032 µg/mL (≈ 0.0402 µM); in experiment [4], 64 µg/mL (≈ 80.4 µM); in experiment [5] it was 0.064 µg/mL (≈ 0.0804 µM).

As for `CC[C@H]1OC(=O)[C@H](C)C(O/C=C\Cc2cncc3ccccc23)[C@H](C)[C@@H](O[C@H]2O[C@H](C)C[C@H](N(C)C)[C@H]2O)[C@](C)(OC)C[C@@H](C)/C(=N\OC/C=C/c2cncc3ccccc23)[C@H](C)[C@@H](O)[C@]1(C)O` (some centres not stated), the minimum inhibitory concentration (MIC) in experiment [1] is 16 µg/mL (≈ 17 µM); in experiment [3], 128 µg/mL (≈ 136 µM).

Consider `C=CCOC1[C@@H](C)C(=O)O[C@H](CC)[C@@](C)(O)[C@H](O)[C@@H](C)/C(=N/OC/C=C/c2cncnc2)[C@H](C)C[C@@](C)(OC)[C@H](O[C@H]2O[C@H](C)C[C@H](N(C)C)[C@H]2O)[C@H]1C` (some centres not stated), for which the minimal inhibitory concentration (MIC) in experiment [1] is 8 µg/mL (≈ 10.5 µM); in experiment [2] it was 128 µg/mL (≈ 168 µM); in experiment [6] it was 16 µg/mL (≈ 21 µM); in experiment [3], 32 µg/mL (≈ 41.9 µM); in experiment [4], greater than 256 µg/mL; in experiment [5], 32 µg/mL (≈ 41.9 µM). This compound also yielded a minimum inhibitory concentration (MIC) in experiment [7] of 128 µg/mL (≈ 168 µM).

For `CC[C@H]1OC(=O)[C@H](C)[C@@H](O[C@H]2C[C@@](C)(OC)[C@@H](O)[C@H](C)O2)[C@H](C)[C@@H](O[C@@H]2O[C@H](C)C[C@H](N(C)C)[C@H]2O)[C@](C)(O)C[C@@H](C)CN(C)[C@H](C)[C@@H](O)[C@]1(C)O` [AZITHROMYCIN], the MIC in experiment [1] was 0.064 µg/mL (≈ 0.0854 µM); in experiment [2], 128 µg/mL (≈ 171 µM); in experiment [3], 0.5 µg/mL (≈ 0.668 µM); in experiment [4], greater than 256 µg/mL; in experiment [5], 64 µg/mL (≈ 85.4 µM).

`CC[C@H]1OC(=O)[C@H](C)C(=O)[C@H](C)[C@@H](O[C@H]2O[C@H](C)C[C@H](N(C)C)[C@H]2O)[C@](C)(OC)C[C@@H](C)/C(=N\OC/C=C/c2cncc3ccccc23)[C@H](C)[C@@H]2OC(=O)O[C@]12C`: the MIC was determined as 0.032 µg/mL (≈ 0.0402 µM) in experiment [1]; 64 µg/mL (≈ 80.4 µM) in experiment [2]; 0.064 µg/mL (≈ 0.0804 µM) in experiment [3]; 256 µg/mL (≈ 322 µM) in experiment [4]; 0.5 µg/mL (≈ 0.628 µM) in experiment [5].

On to `CC[C@H]1OC(=O)[C@H](C)C(=O)[C@H](C)[C@@H](O[C@H]2O[C@H](C)C[C@H](N(C)C)[C@H]2O)[C@](C)(OC)C[C@@H](C)/C(=N\OC/C=C/c2ccc(-n3ccnc3)cc2)[C@H](C)[C@@H]2OC(=O)O[C@]12C`, for which the minimum inhibitory concentration (MIC) is no more than 0.016 µg/mL in experiment [1]; 32 µg/mL (≈ 39.5 µM) in experiment [2]; 0.125 µg/mL (≈ 0.154 µM) in experiment [6]; 0.125 µg/mL (≈ 0.154 µM) in experiment [3]; 64 µg/mL (≈ 78.9 µM) in experiment [4]; 0.125 µg/mL (≈ 0.154 µM) in experiment [5]. In experiment [7], this compound registered an MIC of 1 µg/mL (≈ 1.23 µM).

Take `CC[C@H]1OC(=O)[C@H](C)C(=O)[C@H](C)[C@@H](O[C@H]2O[C@H](C)C[C@H](N(C)C)[C@H]2O)[C@](C)(OC)C[C@@H](C)/C(=N\OC/C=C/c2ccc3ncccc3c2)[C@H](C)[C@@H]2OC(=O)O[C@]12C`: the MIC in experiment [1] is no more than 0.016 µg/mL; in experiment [2], 32 µg/mL (≈ 40.2 µM); in experiment [6], 0.25 µg/mL (≈ 0.314 µM); in experiment [3], 0.032 µg/mL (≈ 0.0402 µM); in experiment [4], 64 µg/mL (≈ 80.4 µM); in experiment [5], no more than 0.016 µg/mL. The MIC in experiment [7] worked out at 1 µg/mL (≈ 1.26 µM).

In the case of `CC[C@H]1OC(=O)[C@H](C)[C@@H](O[C@H]2C[C@@](C)(OC)[C@@H](O)[C@H](C)O2)[C@H](C)[C@@H](O[C@@H]2O[C@H](C)C[C@H](N(C)C)[C@H]2O)[C@](C)(OC)C[C@@H](C)C(=O)[C@H](C)[C@@H](O)[C@]1(C)O` [CLARITHROMYCIN], the MIC is 0.032 µg/mL (≈ 0.0428 µM) in experiment [1]; 128 µg/mL (≈ 171 µM) in experiment [2]; 4 µg/mL (≈ 5.35 µM) in experiment [6]; 0.125 µg/mL (≈ 0.167 µM) in experiment [3]; greater than 256 µg/mL in experiment [4]; 64 µg/mL (≈ 85.6 µM) in experiment [5]. Moreover, it took 16 µg/mL (≈ 21.4 µM) to inhibit growth in experiment [7] (MIC).

Regarding `CC[C@H]1OC(=O)[C@H](C)C(=O)[C@H](C)[C@@H](O[C@H]2O[C@H](C)C[C@H](N(C)C)[C@H]2O)[C@](C)(OC)C[C@@H](C)/C(=N\OC/C=C/c2cncnc2)[C@H](C)[C@@H]2OC(=O)O[C@]12C`, the MIC in experiment [1] was no more than 0.016 µg/mL; in experiment [2] it was 128 µg/mL (≈ 171 µM); in experiment [6], 0.25 µg/mL (≈ 0.335 µM); in experiment [3] it was 0.032 µg/mL (≈ 0.0428 µM); in experiment [4], 256 µg/mL (≈ 343 µM); in experiment [5] it was 0.032 µg/mL (≈ 0.0428 µM). The MIC in experiment [7] is 1 µg/mL (≈ 1.34 µM).
